The results in this text go back to PubChem BioAssay (NCI).

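Five concentrations, 48 hours, 96-well plates. TGI marks complete inhibition of growth.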

The TGI is the concentration giving total growth inhibition. Higher therefore signals lower sensitivity of the cells.

Test systems include HOP-62 NSCLC; SF-295 CNS; MALME-3M melanoma; EKVX NSCLC; OVCAR-4 ovarian; UACC-257 melanoma; K-562 leukemia; NCI-H23 lung; SN12C renal; T-47D breast; SK-OV-3 ovarian; NCI-H522 lung; UO-31 renal; SNB-19 CNS; MCF7 breast; RXF 393 renal; A498 renal.
Test in all cases: DTP human tumour cell line panel, 48 h

Turning to `CC(C)C(NCc1c(O)ccc2c(-c3ccccc3)cc(=O)oc12)C(=O)O` (centres undefined), the TGI in the assay with HOP-62 NSCLC, in the assay with SF-295 CNS, in the assay with MALME-3M melanoma, with EKVX NSCLC, in the assay with OVCAR-4 ovarian and with UACC-257 melanoma was above 100 µM each time. For the same compound, the TGI in the assay on K-562 leukemia, in the assay with NCI-H23 lung, in the assay with SN12C renal, in the assay with T-47D breast, with SK-OV-3 ovarian and in the assay on NCI-H522 lung was above 100 µM each time. For the same compound, the TGI with UO-31 renal, in the assay on SNB-19 CNS, with MCF7 breast and in the assay on RXF 393 renal was above 100 µM throughout.
For `C/C=C/[C@H](O[Si](C)(C)C(C)(C)C)[C@@H](O)/C=C/C(=O)OCC`, the TGI came out at 39.8 µM with HOP-62 NSCLC; 46 µM in the assay on SF-295 CNS; 28.4 µM in the assay with MALME-3M melanoma; 45.4 µM in the assay with EKVX NSCLC; 27.8 µM in the assay on OVCAR-4 ovarian; 40.8 µM in the assay with UACC-257 melanoma. Further, the TGI is 43.9 µM in the assay on K-562 leukemia; above 100 µM in the assay with NCI-H23 lung; 48.1 µM in the assay with SN12C renal; 89.8 µM in the assay with T-47D breast; 30.3 µM with NCI-H522 lung; 42.5 µM in the assay on UO-31 renal. The TGI in the assay on SNB-19 CNS was 28.7 µM; in the assay on MCF7 breast, 45.2 µM; in the assay on RXF 393 renal, 43.1 µM; with A498 renal, 67.9 µM.
With `CC1=NN(C(=O)CC(=O)Nc2cccc(Cl)c2)C(=O)C1N=Nc1ccc(C(=O)O)cc1` (centres undefined), the total growth inhibition concentration (TGI) in the assay with HOP-62 NSCLC, in the assay with SF-295 CNS, with MALME-3M melanoma, in the assay on EKVX NSCLC, with OVCAR-4 ovarian and with UACC-257 melanoma was above 100 µM in each case. Besides, the TGI in the assay on K-562 leukemia, in the assay with NCI-H23 lung, in the assay on SN12C renal, in the assay on T-47D breast, in the assay with NCI-H522 lung and in the assay on UO-31 renal was above 100 µM each time. The TGI with SNB-19 CNS, in the assay on MCF7 breast, with RXF 393 renal and in the assay with A498 renal was above 100 µM in each case.
As for `CC1(C)O[C@@H](CBr)C[C@H](C[C@H]2C[C@@H](O)C[C@@H](CCOCc3ccccc3)O2)O1`, the TGI in the assay on HOP-62 NSCLC was 42.8 µM; with SF-295 CNS, 32.4 µM; in the assay on MALME-3M melanoma it was 35.1 µM; in the assay with EKVX NSCLC it was 33 µM; with OVCAR-4 ovarian, 41.7 µM; with UACC-257 melanoma, 37.8 µM. For the same compound, the total growth inhibition concentration (TGI) with K-562 leukemia is above 100 µM; in the assay on NCI-H23 lung, 36.7 µM; in the assay with SN12C renal it was 79.4 µM; in the assay with T-47D breast it was 38.3 µM; with SK-OV-3 ovarian, 33.7 µM; in the assay on NCI-H522 lung, 35.4 µM. For the same compound, the TGI with UO-31 renal is 43.5 µM; in the assay on SNB-19 CNS, 61.8 µM; with MCF7 breast it was 46.2 µM; in the assay on A498 renal it was 48.6 µM.
In the case of `CCOP(=O)(OCC)/C(C#N)=C/c1ccnc2ccccc12`, the TGI with HOP-62 NSCLC is above 100 µM; with SF-295 CNS, 57.9 µM; with MALME-3M melanoma it was above 100 µM; in the assay on EKVX NSCLC, above 100 µM; with OVCAR-4 ovarian it was above 100 µM; in the assay on UACC-257 melanoma, above 100 µM. Also, the TGI in the assay with NCI-H23 lung is 59.7 µM; in the assay with SN12C renal it was 88.2 µM; in the assay on T-47D breast it was above 100 µM; with SK-OV-3 ovarian, 82.7 µM; in the assay with NCI-H522 lung, 57.8 µM; in the assay on SNB-19 CNS it was 57.5 µM. The figures for the TGI in the assay with MCF7 breast, in the assay on RXF 393 renal and in the assay on A498 renal were above 100 µM, 79.1 µM and above 100 µM, respectively.
Consider `O=c1ccn(C2OC(CN(O)CCC3C(CO)OC(n4ccc(=O)[nH]c4=O)C3O)C(O)C2O)c(=O)[nH]1` (centres undefined), for which the TGI in the assay on HOP-62 NSCLC, with SF-295 CNS, in the assay on MALME-3M melanoma, with EKVX NSCLC, in the assay with OVCAR-4 ovarian and in the assay on UACC-257 melanoma was above 100 µM in each case. Further, the TGI with K-562 leukemia, with NCI-H23 lung, in the assay on SN12C renal, with T-47D breast, in the assay with SK-OV-3 ovarian and in the assay on UO-31 renal was above 100 µM throughout. Also, the TGI in the assay on SNB-19 CNS, with MCF7 breast, in the assay on RXF 393 renal and in the assay on A498 renal was above 100 µM each time.
Turning to `COCCOC(=O)C(C)=[N+]=[N-]`, the TGI in the assay with HOP-62 NSCLC, in the assay with SF-295 CNS, in the assay on MALME-3M melanoma, in the assay with EKVX NSCLC, in the assay on OVCAR-4 ovarian and in the assay on UACC-257 melanoma was above 100 µM throughout. Also, the TGI with K-562 leukemia, with NCI-H23 lung, with SN12C renal, in the assay with T-47D breast, in the assay with NCI-H522 lung and in the assay with UO-31 renal was above 100 µM throughout. Also, the TGI in the assay with SNB-19 CNS, with MCF7 breast, in the assay on RXF 393 renal and in the assay on A498 renal was above 100 µM in each case.
In the case of `N#Cc1nc(COCCOCc2ccc(F)cc2)oc1N`, the TGI in the assay with HOP-62 NSCLC, in the assay with SF-295 CNS, in the assay on EKVX NSCLC, with OVCAR-4 ovarian, in the assay with UACC-257 melanoma and with K-562 leukemia was above 100 µM in each case. Besides, the TGI in the assay with NCI-H23 lung, in the assay with SN12C renal, in the assay on T-47D breast, in the assay with SK-OV-3 ovarian, with NCI-H522 lung and with UO-31 renal was above 100 µM each time. Moreover, the TGI in the assay on MCF7 breast, in the assay with RXF 393 renal and in the assay on A498 renal was above 100 µM each time.
`CCc1n[nH]c(=O)n1CCO`: the TGI with SF-295 CNS, with EKVX NSCLC, with OVCAR-4 ovarian, with UACC-257 melanoma, in the assay with K-562 leukemia and with NCI-H23 lung was above 100 µM in each case. In addition, the TGI in the assay with SN12C renal, with T-47D breast, in the assay on SK-OV-3 ovarian, with UO-31 renal, in the assay on SNB-19 CNS and in the assay on MCF7 breast was above 100 µM in each case. In addition, the TGI in the assay with A498 renal was above 100 µM.
